Measured values reported in patent publication EP4755396A1, “TREATMENT OF P53 GENE MUTATION OR DEFECT NEGATIVE CANCER AND TUMOR PATIENTS” (Ascentawits Pharmaceuticals, Ltd., priority 2023, dated 2025).

How the values were obtained:
[1] = test system: Ser15-p53, Ser20-p53, Total p53, MDM2 and p21 proteins in H460 cells; experiment: WB detection of p53 protein pathway; format: cell-based; conditions: 0.1-1 nM AST-3424, 5 µM Nutlin-3, 24 hours, three experiments (Figures 11-13)
Description: Overview of the experimental process: • 1) H460 cell suspension was added to a 24-well plate, with a cell density of 80000 /well and 995 µL of medium per well. • 2) The cells were cultured overnight in an incubator at 37°C, 5% CO2. • 3) Compound Treatment
After 24 hours of cell plating, according to the protocol, each cell line experiment was grouped as: Monotherapy: After 24 hours of cell plating, each well was supplied with 5µL of test compounds at different concentrations: 0.5% DMSO, 0.1nM AST-3424 and 5 µM Nutlin-3, shaken gently to ensure even mixing, and then placed at 37°C, 5% CO2 in an incubator.
Combination therapy: After 24 hours of cell plating, each well was supplied with 5µL of test compounds at different concentrations. The cells were pre-treated with 5µM Nutlin-3 for 2 hours and then were added with 0.1nM AST-3424, shaken gently to ensure even mixing, and then placed at 37°C, 5% CO2 in an incubator.
4) Cell protein lysates were collected for WB analysis.
Combination therapy group: • Adding 0.1 nM AST-3424 for pre-treatment for 2 hours, and then adding 5 µM Nutlin-3 for co-treatment for 22 hours; • Adding 0.3 nM AST-3424 for pre-treatment for 2 hours, and then adding 5 µM Nutlin-3 for co-treatment for 22 hours; • Adding 1 nM AST-3424 for pre-treatment for 2 hours, and then adding 5 µM Nutlin-3 for co-treatment for 22 hours.

HPAF-II cells = experiment: Cell cycle G2/M arrest, PI staining flow cytometry; format: cell-based; conditions: HPAF-II cells with p53 pathogenic mutation, 0.1 nM AST-3424, 5 µM Nutlin-3, 24 hours (Figure 5)
Description: Overview of the experimental process: • 1) H460/HPAF-II cell suspensions were added to a 24-well plate, with a cell density of 100000 /well and 995 µL of medium per well. • 2) The cells were cultured overnight in an incubator at 37°C, 5% CO2. • 3) Compound Treatment
After 24 hours of cell plating, according to the protocol, each cell line experiment was grouped as: Monotherapy: After 24 hours of cell plating, each well was supplied with 5µL of test compounds at different concentrations: 1% DMSO, 5 µM Nutlin-3 and 0.1 nM AST-3424, shaken gently to ensure even mixing, and then placed at 37°C, 5% CO2 in an incubator.
To cells AST-3424 pre-treatment for 2 hours followed by co-treatment with Nutlin-3 for 24 hours.
To cells Nutlin-3 pre-treatment for 2 hours followed by co-treatment with AST -3424 for 24 hours.
Co-treatment with AST-3424 and Nutlin-3 for 24 hours.
4) The cells were digested, centrifuged at 1000 g at 4°C, washed once with pre-cooled PBS, centrifuged at 1000 g at 4°C, and fixed with 1 mL of pre-cooled 70% ethanol at -20°C overnight.
5) The cells were centrifuged at 3000g at 4°C, washed once with pre-cooled PBS (phosphate buffer), centrifuged at 3000g at 4°C. Prepare PI staining solution. […] Flow cytometric detection was performed on the same day, and the proportion of cells in different cell cycle phases was analyzed using FlowJo. […]

[2] = test system: Total P53, MDM2, P21, AKR1C3 proteins in H460 P53 KO cells; experiment: WB detection, presence and absence of Nutlin-3; format: cell-based, human; conditions: H460 P53 KO cells (#1, #7, #8, #12), 5 µM Nutlin-3, 24h, compared to H460 wild-type DMSO group (Figures 29, 30)
Description: • 1) H460 and H460 P53 KO cell suspensions were added to a 24-well plate, with a cell density of 100000 /well and 995 µL of medium per well. • 2) The cells were cultured overnight in an incubator at 37°C, 5% CO2. • 3) Compound Treatment
After 24 hours of cell plating, according to the protocol, each cell line experiment was grouped as: H460 WT untreated group, H460 P53 KO # 1 untreated group, H460 P53 KO # 7 untreated group, H460 P53 KO # 8 untreated group, H460 P53 KO # 12 untreated group, H460 WT 0.1% DMSO treated group, H460 WT 5 µM Nutlin-3 treated group, H460 P53 KO # 1 5 µM Nutlin-3 treated group, H460 P53 KO # 7 5 µM Nutlin-3 treated group, H460 P53 KO # 8 5 µM Nutlin-3 treated group, H460 P53 KO # 12 5 µM Nutlin-3 treated group. […]
• 1) The cell plates were taken back, the medium supernatant was discarded, and the plates were gently rinsed with PBS. […] The cells were scraped off with a cell scraper, lysed on ice for 30 min, and centrifuged at 14000 rpm and 4°C for 10 min. • 2) Protein quantification was performed using the BCA method. […] Solutions A and B of the ECL luminescence solution (SuperSignal West Femto Maximum Sensitivity) were mixed and added to the membrane dried away from water. […]

[3] = test system: p53, Rad51, MDM2 and p21 proteins in HPAF-II cells; experiment: WB detection of p53 pathway proteins in p53 mutant cells; format: cell-based; conditions: 60 nM AST, 8 µM Nutlin-3, 24 hours (Figure 23)
Description: • 1)HPAF-II cell suspension was added to a 24-well plate, with a cell density of 300000 /well and 995 µL of medium per well. • 2) The cells were cultured overnight in an incubator at 37°C, 5% CO2. • 3) Compound treatment. After 24 hours of cell plating, the cells were grouped and dosed according to different cells.
HPAF-II were grouped as: 1% DMSO treated group, 60nM AST treated group, 8 µM Nutlin-3 treated group, AST 60nM + Nutlin-3 8 µM treated group.
Monotherapy: After 24 hours of cell plating, each well was supplied with 5µL of test compounds at different concentrations: 1% DMSO, AST 1.5nM, Nutlin-3 1µM, AST 60nM and Nutlin-3 8µM, shaken gently to ensure even mixing, and then placed at 37°C, 5% CO2 in an incubator.
Combination therapy: After 24 hours of cell plating, each well was supplied with 5µL of 1µM Nutlin-3 and Nutlin-3 8µM respectively for pre-treatment four 2 hours. Then the corresponding cells were added with […] of 1.5nM AST and 60nM AST, shaken gently to ensure even mixing, and then placed at 37°C, 5% CO2 in an incubator.
4) After incubating the 24-well plates in a 37°C, 5% CO2 incubator for 24 hours, the cell protein lysate was collected for WB detection, and the WB detection results were shown in Figure 23. […]

A549 cells = experiment: Cell cycle G2/M arrest, PI staining flow cytometry; format: cell-based; conditions: second experiment, 0.3-9 nM AST-3424, 5 µM Nutlin-3, AST-3424 pre-treatment 2 hours (Figure 6)
Description: A second experiment was further conducted, in order to further study the effects of different concentrations of AST-3424 alone, Nutlin-3 alone and the two in combination and different administration sequences in the combination therapy on the cell cycle of H460/A549 cells (p53 wild-type, protein normal expression).
The remaining operations were similar to the above experiment, and the compound treatment conditions were as follows:
For A549 cell line, 1% DMSO, adding 5 µM Nutlin-3 for treatment for 22 hours, adding 0.3 nM AST-3424 for treatment for 24 hours, adding 1 nM AST-3424 for treatment for 24 hours, adding 9 nM AST-3424 for treatment for 24 hours, and adding 9 nM AST-3424 for treatment for 24 hours.
For A549 cell line, • Adding 0.3 nM AST-3424 for pre-treatment for 2 hours, and then adding 5 µM Nutlin-3 for co-treatment for 22 hours; • Adding 1 nM AST-3424 for pre-treatment for 2 hours, and then adding 5 µM Nutlin-3 for co-treatment for 22 hours; • Adding 3 nM AST-3424 for pre-treatment for 2 hours, and then adding 5 µM Nutlin-3 for co-treatment for 22 hours; • Adding 9 nM AST-3424 for pre-treatment for 2 hours, and then adding 5 µM Nutlin-3 for co-treatment for 22 hours.

SMILES: COc1ccc(C2=NC(c3ccc(Cl)cc3)C(c3ccc(Cl)cc3)N2C(=O)N2CCNC(=O)C2)c(OC(C)C)c1 (racemic) [Nutlin-3]
- phosphorylation of p53 (Ser15-p53 and Ser20-p53), protein expression of total-p53, MDM2 and p21 (WB) [1]: upregulated the expression levels of p53 and its downstream proteins p21 and MDM2
- cell cycle (G0/G1, S, G2/M phases) (HPAF-II cells): no effect
- expressions of MDM2, P53, P21 and AKR1C3 proteins (WB) [2]: not upregulated

SMILES: O=[N+]([O-])c1ccc(C(OP(=O)(N2CC2)N2CC2)C(F)(F)F)cc1Oc1ccc(-c2ccc(F)cc2)c(F)c1 (stereo not drawn) [AST]
- expression of RAD51 protein (WB) [3]: promoted the expression of RAD51 protein
- expression of p53, its downstream proteins p21 and MDM2 (WB) [3]: no effect

SMILES: C[C@H](OP(=O)(N1CC1)N1CC1)c1ccc([N+](=O)[O-])c(Oc2cccc(C(=O)N(C)C)c2)c1 [AST-3424]
- G2/M cell cycle arrest (A549 cells): concentration-dependent G2/M cell cycle arrest
